Patent publication US20140348819A1, “Methods of Treating Cancer” (Dana-Farber Cancer Institute, Inc., priority 2011, published 2014)

Assays:
[1] = test system: six V600E BRAF melanoma cell lines; test: Screening of recombinant RTK ligands for ability to confer resistance to BRAFi (PLX4720) or MEKi (PD184352) (Table 4); assay type: cell-based, human; parameters: ability of recombinant RTK ligand to confer resistance / ability of recombinant RTK ligand to confer resistance (screening value): scale not given here
Outline: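 Six V600E BRAF melanoma lines treated with PLX4720 or PD184352 after addition of 22 recombinant RTK ligands, scored for drug resistance. Activation of selected RTKs confirmed by western blotting and high-throughput tyrosine kinase phosphorylation profiling.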

pERK/pAKT = test: High-throughput western analysis of pERK/pAKT re-activation by RTK ligands under BRAFi/MEKi; assay type: cell-based, human; conditions: under BRAFi (PLX4720); after 1 hour of cytokine treatment; six V600E BRAF melanoma cell lines

PDGF-BB: RTK ligand of PDGFRB
ability of recombinant RTK ligand to confer resistance ([1]; A2058, PD184352 - 1 uM, ligand 0.4 ng/ml): 1.07 | ability of recombinant RTK ligand to confer resistance ([1]; A2058, PD184352 - 1 uM, ligand 1.6 ng/ml): 0.98 | ability of recombinant RTK ligand to confer resistance ([1]; A2058, PD184352 - 1 uM, ligand 6.25 ng/ml): 1.10 | ability of recombinant RTK ligand to confer resistance ([1]; A2058, PD184352 - 1 uM, ligand 25 ng/ml): 1.09 | ability of recombinant RTK ligand to confer resistance ([1]; A2058, PD184352 - 1 uM, ligand 100 ng/ml): 1.02 | ability of recombinant RTK ligand to confer resistance ([1]; A2058, PLX4720 - 2 uM, ligand 0.4 ng/ml): 1.07 | ability of recombinant RTK ligand to confer resistance ([1]; A2058, PLX4720 - 2 uM, ligand 1.6 ng/ml): 0.98 | ability of recombinant RTK ligand to confer resistance ([1]; A2058, PLX4720 - 2 uM, ligand 6.25 ng/ml): 1.07 | ability of recombinant RTK ligand to confer resistance ([1]; A2058, PLX4720 - 2 uM, ligand 25 ng/ml): 1.12 | ability of recombinant RTK ligand to confer resistance ([1]; A2058, PLX4720 - 2 uM, ligand 100 ng/ml): 1.07 | ability of recombinant RTK ligand to confer resistance ([1]; C32, PD184352 - 1 uM, ligand 0.4 ng/ml): 1.06 | ability of recombinant RTK ligand to confer resistance ([1]; C32, PD184352 - 1 uM, ligand 1.6 ng/ml): 0.97 | ability of recombinant RTK ligand to confer resistance ([1]; C32, PD184352 - 1 uM, ligand 6.25 ng/ml): 1.08 | ability of recombinant RTK ligand to confer resistance ([1]; C32, PD184352 - 1 uM, ligand 25 ng/ml): 1.10 | ability of recombinant RTK ligand to confer resistance ([1]; C32, PD184352 - 1 uM, ligand 100 ng/ml): 0.96 | ability of recombinant RTK ligand to confer resistance ([1]; C32, PLX4720 - 2 uM, ligand 0.4 ng/ml): 0.96 | ability of recombinant RTK ligand to confer resistance ([1]; C32, PLX4720 - 2 uM, ligand 1.6 ng/ml): 0.97 | ability of recombinant RTK ligand to confer resistance ([1]; C32, PLX4720 - 2 uM, ligand 6.25 ng/ml): 1.04 | ability of recombinant RTK ligand to confer resistance ([1]; C32, PLX4720 - 2 uM, ligand 25 ng/ml): 0.97 | ability of recombinant RTK ligand to confer resistance ([1]; C32, PLX4720 - 2 uM, ligand 100 ng/ml): 0.89 | ability of recombinant RTK ligand to confer resistance ([1]; Colo 829, PD184352 - 1 uM, ligand 0.4 ng/ml): 1.04 | ability of recombinant RTK ligand to confer resistance ([1]; Colo 829, PD184352 - 1 uM, ligand 1.6 ng/ml): 1.06 | ability of recombinant RTK ligand to confer resistance ([1]; Colo 829, PD184352 - 1 uM, ligand 6.25 ng/ml): 1.10 | ability of recombinant RTK ligand to confer resistance ([1]; Colo 829, PD184352 - 1 uM, ligand 25 ng/ml): 1.09 | ability of recombinant RTK ligand to confer resistance ([1]; Colo 829, PD184352 - 1 uM, ligand 100 ng/ml): 0.98 | ability of recombinant RTK ligand to confer resistance ([1]; Colo 829, PLX4720 - 2 uM, ligand 0.4 ng/ml): 1.01 | ability of recombinant RTK ligand to confer resistance ([1]; Colo 829, PLX4720 - 2 uM, ligand 1.6 ng/ml): 1.03 | ability of recombinant RTK ligand to confer resistance ([1]; Colo 829, PLX4720 - 2 uM, ligand 6.25 ng/ml): 1.06 | ability of recombinant RTK ligand to confer resistance ([1]; Colo 829, PLX4720 - 2 uM, ligand 25 ng/ml): 1.06 | ability of recombinant RTK ligand to confer resistance ([1]; Colo 829, PLX4720 - 2 uM, ligand 100 ng/ml): 1.01 | ability of recombinant RTK ligand to confer resistance ([1]; G-361, PD184352 - 1 uM, ligand 0.4 ng/ml): 1.00 | ability of recombinant RTK ligand to confer resistance ([1]; G-361, PD184352 - 1 uM, ligand 1.6 ng/ml): 0.89 | ability of recombinant RTK ligand to confer resistance ([1]; G-361, PD184352 - 1 uM, ligand 6.25 ng/ml): 0.99 | ability of recombinant RTK ligand to confer resistance ([1]; G-361, PD184352 - 1 uM, ligand 25 ng/ml): 0.98 | ability of recombinant RTK ligand to confer resistance ([1]; G-361, PD184352 - 1 uM, ligand 100 ng/ml): 0.96 | ability of recombinant RTK ligand to confer resistance ([1]; G-361, PLX4720 - 2 uM, ligand 0.4 ng/ml): 0.93 | ability of recombinant RTK ligand to confer resistance ([1]; G-361, PLX4720 - 2 uM, ligand 1.6 ng/ml): 0.90 | ability of recombinant RTK ligand to confer resistance ([1]; G-361, PLX4720 - 2 uM, ligand 6.25 ng/ml): 0.98 | ability of recombinant RTK ligand to confer resistance ([1]; G-361, PLX4720 - 2 uM, ligand 25 ng/ml): 1.00 | ability of recombinant RTK ligand to confer resistance ([1]; G-361, PLX4720 - 2 uM, ligand 100 ng/ml): 1.00 | ability of recombinant RTK ligand to confer resistance ([1]; SK-MEL-5, PD184352 - 1 uM, ligand 0.4 ng/ml): 1.03 | ability of recombinant RTK ligand to confer resistance ([1]; SK-MEL-5, PD184352 - 1 uM, ligand 1.6 ng/ml): 1.08 | ability of recombinant RTK ligand to confer resistance ([1]; SK-MEL-5, PD184352 - 1 uM, ligand 6.25 ng/ml): 1.04 | ability of recombinant RTK ligand to confer resistance ([1]; SK-MEL-5, PD184352 - 1 uM, ligand 25 ng/ml): 1.15 | ability of recombinant RTK ligand to confer resistance ([1]; SK-MEL-5, PD184352 - 1 uM, ligand 100 ng/ml): 1.16 | ability of recombinant RTK ligand to confer resistance ([1]; SK-MEL-5, PLX4720 - 2 uM, ligand 0.4 ng/ml): 0.87 | ability of recombinant RTK ligand to confer resistance ([1]; SK-MEL-5, PLX4720 - 2 uM, ligand 1.6 ng/ml): 0.98 | ability of recombinant RTK ligand to confer resistance ([1]; SK-MEL-5, PLX4720 - 2 uM, ligand 6.25 ng/ml): 1.02 | ability of recombinant RTK ligand to confer resistance ([1]; SK-MEL-5, PLX4720 - 2 uM, ligand 25 ng/ml): 1.16 | ability of recombinant RTK ligand to confer resistance ([1]; SK-MEL-5, PLX4720 - 2 uM, ligand 100 ng/ml): 1.31 | ability of recombinant RTK ligand to confer resistance ([1]; SK-MEL-28, PD184352 - 1 uM, ligand 0.4 ng/ml): 1.10 | ability of recombinant RTK ligand to confer resistance ([1]; SK-MEL-28, PD184352 - 1 uM, ligand 1.6 ng/ml): 1.02 | ability of recombinant RTK ligand to confer resistance ([1]; SK-MEL-28, PD184352 - 1 uM, ligand 6.25 ng/ml): 1.05 | ability of recombinant RTK ligand to confer resistance ([1]; SK-MEL-28, PD184352 - 1 uM, ligand 25 ng/ml): 0.99 | ability of recombinant RTK ligand to confer resistance ([1]; SK-MEL-28, PD184352 - 1 uM, ligand 100 ng/ml): 1.03 | ability of recombinant RTK ligand to confer resistance ([1]; SK-MEL-28, PLX4720 - 2 uM, ligand 0.4 ng/ml): 1.03 | ability of recombinant RTK ligand to confer resistance ([1]; SK-MEL-28, PLX4720 - 2 uM, ligand 1.6 ng/ml): 1.10 | ability of recombinant RTK ligand to confer resistance ([1]; SK-MEL-28, PLX4720 - 2 uM, ligand 6.25 ng/ml): 1.16 | ability of recombinant RTK ligand to confer resistance ([1]; SK-MEL-28, PLX4720 - 2 uM, ligand 25 ng/ml): 10.5 | ability of recombinant RTK ligand to confer resistance ([1]; SK-MEL-28, PLX4720 - 2 uM, ligand 100 ng/ml): 1.13 | ability of RTK ligand to confer primary resistance ([1]; six V600E BRAF melanoma cell lines, BRAFi (PLX4720) or MEKi (PD184352)): not shown to induce primary resistance | re-activation of pERK/pAKT (pERK/pAKT): reactivate only ERK
